The test system of test [1] is ER-positive invasive breast cancer with negative axillary lymph nodes. Kind of test: NSABP B-14 placebo and TAM arms combined: Cox interaction of treatment effect with gene expression, distant recurrence-free survival. The format is in vivo, human. The note with it: for H.R., treatment by gene expression interaction: placebo and TAM combined. Here is the method:
Endometrial cancer in TAM-treated breast cancer patients: Findings from the National Surgical Adjuvant Breast and Bowel Project (NSABP) B-14. J Natl Cancer Inst 86:527-537(1994). • 1.1 Fixed paraffin-embedded breast tumor tissue samples from up to 450 patients, who were treated at study entry with placebo alone in the B-14 study, were analyzed. For each evaluable patient, the expression of 16 cancer-related genes and 5 reference genes was quantitatively assessed by RT-PCR. […] Contralateral disease, other second primary cancers, and deaths prior to distant recurrence will be considered censoring events. […] Gene expression values were normalized relative to the mean of the reference genes. For each cancer-related gene, cycle threshold (CT) measurements were obtained by RT-PCR, and normalized relative to a set of five reference genes listed in Table 1. […] For the purpose of identifying treatment predictive genes in breast cancer, our primary objective was to explore the relation between gene expression and DRFS and OS in treated patients. For such analyses, data from both treated and untreated patient arms were utilized in order to discriminate treatment preditive genes from purely prognostic genes. For identifying treatment predictive genes for tamoxifen (TAM) response, both placebo and TAM-treated patients were included from NSABP Study B-14. In both studies, Cox proportional hazards models were utilized to examine the interaction between the treatment effect and gene expression. An interaction between treatment and gene expression exists if the treatment effect depends on the gene expression level; that is, if gene expression is a treatment predictive factor. Again, the likelihood ratio test was used to identify statistically significant predictive treatment genes by comparing the reduced model excluding the gene expression by treatment interaction versus the competing full model including the gene expression by treatment interaction.

In test [2] the test system is ESR1 positive, node-negative breast cancer. Kind of test: Recurrence Score validation trial, patients treated with TAM alone in NSABP Study B-14: distant recurrence at 10 years. Format: in vivo, human. Here is the method: To test the clinical validity of this Recurrence Score test and algorithm, a blinded clinical trial with prospectively identified endpoints was carried out. This validation trial focused on patients treated with TAM alone in the randomized and registration arms of the National Surgical Adjuvant Breast and Bowel Project (NSABP) Study B-14 clinical trial population (Fisher B, Costantino J P, Redmond C K, et al: Endometrial cancer in TAM-treated breast cancer patients: Findings from the National Surgical Adjuvant Breast and Bowel Project (NSABP) B-14. J Natl Cancer Inst 86:527-537 (1994)). Genomic Health, Inc. and the NSABP carried out the 21 gene RT-PCR assay on 668 breast cancer tissue specimens derived from these patients and calculated a Recurrence Score for each patient.
Pre-specified cut-off points of Recurrence Score classified patients into one of three categories: low risk, intermediate risk, and high risk of distant disease recurrence. The proportion of the 668 patients categorized as low, intermediate, and high risk by the RT-PCR assay were 51%, 23%, and 27%, respectively. […] In a multivariate Cox model relating distant recurrence to Recurrence Score, age, and tumor size, Recurrence Score provides significant (p<0.001) predictive power that goes beyond age and tumor size. This study validated the Recurrence Score as a powerful predictor of distant recurrence in patients without involved nodes who have tumors that are ESR1 positive and treated with TAM (Paik et al. Breast Cancer Research and Treatment 82, Supplement 1: page S10, 2003 (Abstract 16).

Regarding `CC/C(=C(\c1ccccc1)c1ccc(OCCN(C)C)cc1)c1ccccc1` [TAM, tamoxifen], the “decrease of H.R. for recurrence of TAM-treated patients” value in test [1] (for every two fold increase in expression of ESR1, 95% confidence limits ~12% to ~37%) is “about 25%”. Besides, the “absolute benefit of TAM treatment” value in test [1] (patients in the lowest quartile of ESR1 expression (FIG. 3)) is recorded as “little benefit”; in test [1] (patients in the lowest tertile of ESR1 expression (FIG. 2)), “much less impact”; in test [1] (two-thirds of patients who express ESR1 at the highest levels (tertiles, FIG. 2)), “substantial absolute benefit”. Further, the “H.R., treatment by gene expression interaction” value in test [1] (variable IntBCL2_2) turned out to be 0.7697; in test [1] (variable IntESR1 Group) it was 0.7573; in test [1] (variable IntESR1_1), 0.7438; in test [1] (variable IntSCUBE2_2), 0.8058; in test [1] (variable IntTFRC_3), 1.944. For the same molecule, the “Kaplan-Meier estimate (95% confidence interval) of rate of distant recurrence at 10 years” value is on record as 30.5% (23.6%, 37.4%) in test [2] (high risk group by Recurrence Score); 14.3% (8.3%, 20.3%) in test [2] (intermediate risk group by Recurrence Score); 6.8% (4.0%, 9.6%) in test [2] (low risk group by Recurrence Score).
